Our source for the IC50 values is patent publication US10669268B2, “Bicyclic derivatives” (Hoffmann-La Roche Inc., priority 2012, dated 2020).

Each structure is given as a SMILES string.

In the assay the target is ATX (human His-tagged) (Homo sapiens (Human), UniProt Q13822). As to the kind of experiment: Human ATX enzyme inhibition assay (fluorescence quenching, MR121 substrate). It is filed as biochemical. The note with it: 30 nM ATX, 1 μM MR121 substrate, 30° C., pH 8.0. The procedure:
Human ATX Enzyme Inhibition Assay
Assay working solutions were made as follows:
Assay buffer (50 mM Tris-HCl, 140 mM NaCl, 5 mM KCl, 1 mM CaCl2, 1 mM MgCl2, 0.01% Triton-X-100, pH 8.0;
MR121 substrate solution: MR121 substrate stock solution (800 μM MR121 substrate in DMSO), diluted to 2-5× final concentration in assay buffer.
10 μL of MR121 substrate solution was added (1 μM final concentration), mixed 30 times and then incubated for 15 minutes at 30° C.
On to `O=C(OCc1cc(Cl)cc(Cl)c1)N1CC[C@@H]2CN(C(=O)c3ccc4[nH]nnc4c3)C[C@H]2C1` (relative stereo) [Example 1.09, trans-3,5-dichlorobenzyl 2-(1H-benzo[d][1,2,3]triazole-5-carbonyl)hexahydro-1H-pyrrolo[3,4-c]pyridine-5(6H)-carboxylate], for which the IC50 was 9 nM. Regarding `O=C(OCc1cc(Cl)cc(Cl)c1)N1CC[C@H]2CN(C(=O)c3ccc4[nH]nnc4c3)C[C@H]2C1` (relative stereo) [Example 1.10, cis-3,5-dichlorobenzyl 2-(1H-benzo[d][1,2,3]triazole-5-carbonyl)hexahydro-1H-pyrrolo[3,4-c]pyridine-5(6H)-carboxylate], the 50% inhibitory concentration (IC50) stood at 78 nM. `CS(=O)(=O)c1cc(Cl)cc(COC(=O)N2CC[C@@H]3CN(C(=O)c4ccc5[nH]nnc5c4)C[C@H]3C2)c1` (relative stereo) [Example 1.23, trans-2-(1H-benzotriazole-5-carbonyl)-octahydro-pyrrolo[3,4-c]pyridine-5-carboxylic acid 3-chloro-5-methanesulfonyl-benzyl ester] gave an IC50 of 58 nM. Turning to `O=C(OCc1ccc(OC(F)(F)F)cc1)N1CC[C@@H]2CN(C(=O)c3ccc4[nH]nnc4c3)C[C@H]2C1` (relative stereo) [Example 1.24, trans-2-(1H-benzotriazole-5-carbonyl)-octahydro-pyrrolo[3,4-c]pyridine-5-carboxylic acid 4-trifluoromethoxy-benzyl ester], the IC50 worked out at 13 nM. On to `O=C(COc1ccc(OC(F)(F)F)cc1)N1CC[C@@H]2CN(C(=O)c3ccc4[nH]nnc4c3)C[C@H]2C1` (relative stereo) [Example 1.25, 1-[trans-2-(1H-benzotriazole-5-carbonyl)-octahydro-pyrrolo[3,4-c]pyridin-5-yl]-2-(4-trifluoromethoxy-phenoxy)-ethanone], for which 114 nM corresponded to half-maximal inhibition (IC50).

The compound `O=C(OCc1ccc(F)cc1C(F)(F)F)N1CC[C@@H]2CN(C(=O)c3ccc4[nH]nnc4c3)C[C@H]2C1` (relative stereo) [Example 1.30, trans-2-(1H-benzotriazole-5-carbonyl)-octahydro-pyrrolo[3,4-c]pyridine-5-carboxylic acid 4-fluoro-2-trifluoromethyl-benzyl ester] showed an IC50 of 20 nM.

Turning to `O=C(OCc1ccc(C(F)(F)F)cc1C1CC1)N1CC[C@@H]2CN(C(=O)c3ccc4[nH]nnc4c3)C[C@H]2C1` (relative stereo) [Example 1.31, trans-2-(1H-benzotriazole-5-carbonyl)-octahydro-pyrrolo[3,4-c]pyridine-5-carboxylic acid 2-cyclopropyl-4-trifluoromethyl-benzyl ester], half-maximal inhibition (IC50) required 21 nM. Consider `COc1cc(OC(F)(F)F)ccc1COC(=O)N1CC[C@@H]2CN(C(=O)c3ccc4[nH]nnc4c3)C[C@H]2C1` (relative stereo) [Example 1.33, trans-2-(1H-benzotriazole-5-carbonyl)-octahydro-pyrrolo[3,4-c]pyridine-5-carboxylic acid 2-methoxy-4-trifluoromethoxy-benzyl ester], for which it took 21 nM to reach half-maximal inhibition (IC50). `O=C(OCc1cc(Cl)cc(Cl)c1)N1CC[C@@H]2CN(C(=O)c3ccc4[nH]c(=O)oc4c3)C[C@H]2C1` (relative stereo) [Example 2, trans-3,5-Dichlorobenzyl 2-(2-oxo-2,3-dihydrobenzo[d]oxazole-6-carbonyl)hexahydro-1H-pyrrolo[3,4-c]pyridine-5(6H)-carboxylate] displayed an IC50 of 10 nM. Under `CS(=O)(=O)c1cc(COC(=O)N2C[C@H]3CCN(C(=O)c4ccc5[nH]nnc5c4)C[C@@H]3C2)cc(C(F)(F)F)c1` (relative stereo) [Example 4.01, trans-5-(1H-benzotriazole-5-carbonyl)-octahydro-pyrrolo[3,4-c]pyridine-2-carboxylic acid 3-methanesulfonyl-5-trifluoromethyl-benzyl ester] stands 41 nM. In turn, `O=C(OCc1cc(Cl)cc(Cl)c1)N1C[C@@H]2CCN(C(=O)c3ccc4[nH]nnc4c3)C[C@@H]2C1` (relative stereo) [Example 4.08, cis-3,5-dichlorobenzyl 5-(1H-benzo[d][1,2,3]triazole-5-carbonyl)hexahydro-1H-pyrrolo[3,4-c]pyridine-2(3H)-carboxylate] registered a 50% inhibitory concentration (IC50) of 47 nM. In the case of `O=C(OCc1cc(Cl)cc(Cl)c1)N1C[C@H]2CCN(C(=O)c3ccc4[nH]nnc4c3)C[C@@H]2C1` (relative stereo) [Example 4.10, trans-3,5-dichlorobenzyl 5-(1H-benzo[d][1,2,3]triazole-5-carbonyl)hexahydro-1H-pyrrolo[3,4-c]pyridine-2(3H)-carboxylate], the IC50 stood at 4 nM. `O=C(OCc1cc(Cl)cc(Cl)c1)N1C[C@H]2CCN(C(=O)c3ccc4[nH]nnc4c3)C[C@@H]2C1` (relative stereo) [Example 12A, trans-3,5-dichlorobenzyl 5-(1H-benzo[d][1,2,3]triazole-5-carbonyl)-hexahydro-lH-pyrrolo[3,4-c]pyridine-2(3H)-carboxylate]: 11 nM corresponded to half-maximal inhibition (IC50). For the compound `O=C(OCc1cc(Cl)cc(Cl)c1)N1C[C@H]2CCN(C(=O)c3ccc4[nH]nnc4c3)C[C@@H]2C1` (relative stereo) [Example 12B, trans-3,5-dichlorobenzyl 5-(1H-benzo[d][1,2,3]triazole-5-carbonyl)-hexahydro-lH-pyrrolo[3,4-c]pyridine-2(3H)-carboxylate], the IC50 worked out at 5 nM.

Consider `O=C(/C=C/c1cc(Cl)cc(Cl)c1)N1CC[C@@H]2CN(C(=O)c3ccc4[nH]nnc4c3)C[C@H]2C1` (relative stereo) [Example 13, (E)-1-[trans-2-(1H-Benzotriazole-5-carbonyl)-octahydro-pyrrolo[3,4-c]pyridin-5-yl]-3-(3,5-dichloro-phenyl)-prop-2-en-1-one], for which the IC50 worked out at 57 nM. `O=C(c1ccc2[nH]nnc2c1)N1CC[C@@H]2CN(c3nnc(-c4ccc(Cl)cc4)o3)C[C@H]2C1` (relative stereo) [Example 14, (1H-Benzotriazol-5-yl)-{trans-2-[5-(4-chloro-phenyl)-[1,3,4]oxadiazol-2-yl]-octahydro-pyrrolo[3,4-c]pyridin-5-yl}-methanone] displayed a 50% inhibitory concentration (IC50) of 926 nM. `O=C(CCc1ccc(OC(F)(F)F)cc1)N1CC[C@@H]2CN(C(=O)c3ccc4[nH]nnc4c3)C[C@H]2C1` (relative stereo) [Example 17.15, 1-[trans-2-(1H-benzotriazole-5-carbonyl)-octahydro-pyrrolo[3,4-c]pyridin-5-yl]-3-(4-trifluoromethoxy-phenyl)-propan-1-one] came in with an IC50 of 47 nM. With `O=C(CCc1ccc(OC(F)(F)F)cc1)N1CC[C@@H]2CN(Cc3ccc4[nH]nnc4c3)C[C@H]2C1` (relative stereo) [Example 17.16, 1-[trans-2-(1H-benzotriazol-5-ylmethyl)-octahydro-pyrrolo[3,4-c]pyridin-5-yl]-3-(4-trifluoromethoxy-phenyl)-propan-1-one], the IC50 amounted to 309 nM.

As for `O=C(OCc1cc(Cl)cc(Cl)c1)N1CC[C@@H]2CN(C(=O)c3ccc4[nH]nnc4c3)C[C@H]2C1` (single isomer, unassigned) [Example 11A, trans-3,5-dichlorobenzyl 2-(1H-benzo[d][1,2,3]triazole-5-carbonyl)-hexahydro-1H-pyrrolo[3,4-c]pyridine-5(6H)-carboxylate], the IC50 was 22 nM. Next, `O=C(OCc1cc(Cl)cc(Cl)c1)N1CC[C@@H]2CN(C(=O)c3ccc4[nH]nnc4c3)C[C@H]2C1` (single isomer, unassigned) [Example 11B, trans-3,5-dichlorobenzyl 2-(1H-benzo[d][1,2,3]triazole-5-carbonyl)-hexahydro-1H-pyrrolo[3,4-c]pyridine-5(6H)-carboxylate]: 9 nM; `O=C(/C=C/c1ccc(OC(F)(F)F)cc1)N1C[C@H]2CCN(C(=O)c3ccc4[nH]nnc4c3)C[C@@H]2C1` (single isomer, unassigned) [Example 15.25]: 44 nM; `O=C(/C=C/c1ccc(OC(F)(F)F)cc1)N1C[C@@H]2CN(C(=O)c3ccc4[nH]nnc4c3)CC[C@H]2C1` (single isomer, unassigned) [Example 15.26]: 8 nM.

`O=C(/C=C/c1ccc(OC(F)F)cc1)N1C[C@H]2CCN(C(=O)c3ccc4[nH]nnc4c3)C[C@@H]2C1` (single isomer, unassigned) [Example 15.32] registered an IC50 of 19 nM. On to `N#Cc1ccc(/C=C/C(=O)N2C[C@H]3CCN(C(=O)c4ccc5[nH]nnc5c4)C[C@@H]3C2)cc1` (single isomer, unassigned) [Example 15.33], for which the IC50 stood at 328 nM. With `O=C1NC2CCC(C(=O)N3CC4CCN(C(=O)/C=C/c5ccc(OC(F)(F)F)cc5)CCC4C3)CC2O1` (stereo in doubt) [Example 1.16, (3aSR,6SR,7aSR)-6-{(3aR,8aS)-6-[(E)-3-(4-trifluoromethoxy-phenyl)-acryloyl]-octahydro-pyrrolo[3,4-d]azepine-2-carbonyl}-hexahydro-benzooxazol-2-one], it took 382 nM to reach half-maximal inhibition (IC50). For `O=C(c1ccc(-c2ccc(Cl)cc2)cc1)N1C[C@H]2CN(C(=O)c3ccc4[nH]nnc4c3)C[C@@H]2C1` (stereo in doubt) [Example 19.13, (1H-benzotriazol-5-yl)-[(3aS,6aS)-5-(4′-chloro-biphenyl-4-carbonyl)-hexahydro-pyrrolo[3,4-c]pyrrol-2-yl]-methanone], the IC50 came to 10 nM. `O=C(/C=C/c1ccc(OC(F)(F)F)cc1)N1CC[C@@H]2CN(C(=O)C3CCc4[nH]nnc4C3)C[C@@H]2CC1` (stereo partly drawn) [Example 1, (E)-1-[(3aS,8aR)-2-(4,5,6,7-Tetrahydro-1H-benzotriazole-5-carbonyl)-octahydro-pyrrolo[3,4-d]azepin-6-yl]-3-(4-trifluoromethoxy-phenyl)-prop-2-en-1-one]: the IC50 turned out to be 8 nM.

A word on the IC50: it is the midpoint of a concentration-inhibition curve. Read a high IC50 as lower potency.
